Where two headings read alike, the source gives them in different places.
Assays:
[1] = Pharmacokinetics in ovariectomized female rats (plasma, Day 14); type: in vivo, rat; settings: OVX female rats; for AUC: female, po; for AUC / Cmax / Tmax: rat, plasma, PO
Experimental: After the 14th dose, approximately 250 μL venous blood was collected via percutaneous jugular puncture from the rats at 0, 0.5, 1, 2, 4 and 6 hours post-dosing. The blood samples were collected into lithium-heparin tubes (Becton Dickinson, Franklin Lakes, N.J.). Plasma fractions were collected for pharmacokinetic analysis. Approximately 24 hours after the last dose, rats were sacrificed by cardiac exsanguination, and blood was collected into serum separator tubes (Becton Dickinson), and the gastrocnemius muscle, plantaris muscle, uterus, clitoral glands, clitoris and inguinal fat pads were isolated, blotted and weighed individually. Uterine weight measurements can be inaccurate in surgically ovariectomized rats due to the potential loss of uterine tissue at the tips of the uterine horns during removal of the ovaries. To minimize this variability, the length of the uterine horns was measured and the uterine weight was reported normalized to uterine length. The left femur and lumbar vertebra L5 were wrapped in saline-soaked gauze and stored at −20° C. for biochemical analysis. The right femur and lumbar vertebrae L3-L4 were collected and stored in 70% ethanol for histomorphometry. The right tibia was collected in formalin for histological analysis. The left tibia was collected on dry ice and stored at −20° C. for measurement of alkaline phosphatase activity.
Pharmacokinetic analysis was performed as described in Example 13.

[2] = system: orchidectomized male Sprague-Dawley rat; test: In vivo assay, orchidectomized mature male rats (14 days oral); settings: for exposure (AUC24) at which muscle mass is stimulated above sham equivalent levels: ORX male rats, 14 days PO
Source text: The orchidectomized male Sprague-Dawley rat model was used to assess the effects of Compound 102 on various reproductive, gonadotropin and musculoskeletal endpoints, including sex accessory organs, bone, serum gonadotropin levels and striated muscle in mature male rats.
In this assay, two-month old rats were acclimated in a vivarium for one week. After this acclimation period, rats were surgically orchidectomized under isoflurane anesthesia and left untreated for 14 days. After 14 days, animals were sorted into groups such that no statistically significant differences in mean body weights were observed. Rats began receiving treatment 14 days after the day of surgery. Sham-operated and orchidectomized rats, treated with vehicle, served as controls. The different test groups were treated with various doses of Compound 102 (0.03 to 100 mg/kg/day per os (by mouth)). Dosages included 0.03, 0.1, 0.3, 1, 3, 10, 30 and 100 mg/kg/day. Ostarine, a non-steroidal androgenic drug (Evans et al., J Clin Oncology 25: 9119 (2007)) was dosed at dosages similar to other test groups as a comparison. After the 14th dose, venous blood was collected at 0, 1, 2, 4 and 6 hours after dosing. The blood samples were collected in EDTA-containing tubes (Becton Dickinson, Franklin Lakes, N.J.). Approximately 24 hours after the last dose, animals were euthanized and seminal vesicle weights, ventral prostate weights, levator ani weights, preputial gland weights and blood samples were collected on necropsy.
For serum, whole blood (5 mL) was collected in vacutainer tubes (Becton Dickinson) and the blood samples were allowed to clot at room temperature for about 2 hours. Serum was separated by centrifugation at 2500 rpm for 30 minutes, collected and frozen (−80° C.). For plasma, whole blood was collected in EDTA-containing tubes by centrifugation at 1000×g for 5 minutes at 4° C. Plasma samples were stored at −20° C.
For the preparation of all dose formulations, the appropriate amount of test compound (Compound 102) for the highest concentration to be administered was weighed. The compound was suspended in the formulation vehicle (5% Tween®-80 polysorbate, 90% PEG-400 polyethylene glycol and 5% PVP-K30 polyvinylpyrrolidone). The suspension was sonicated for 15 minutes, and the resulting formulation was diluted using vehicle to obtain the proper volume and concentrations of the dosing materials to achieve a dosing volume of 1 mL/kg body weight.
Serum samples were assayed with a double anti-serum procedure using reagents from the National Institute of Diabetes and Digestive and Kidney Diseases (NIDDK). Sample compounds and standards (NIDDK-rLH-RP-3) in a total volume of 200 μL were incubated at room temperature for 2 to 3 days with 100 μL primary anti-serum (rat LH antiserum: rabbit NIDDK-anti-rLH-S-11) diluted 1:100,000. Then, 100 μL of ^125I-labeled LH (Covance Laboratories Madison, Wis.) diluted 200,000-300,000 cpm/mL was added to the tubes and incubation continued for an additional 24 hour period.
Bound hormone was separated from free hormone by precipitation with a specific goat ant-rabbit serum (GARS from Antibodies, Inc., Davis, Calif.). An aliquot of 50 μL of 4% normal rabbit serum was added to each incubation tube, after which an additional 50 μL of a 1:10 GARS solution was added. The tubes were vortexed and incubated overnight at 4° C.
The assay was terminated by centrifugation at 2,500 rpm for 30 minutes in a Sorvall RC 3C Plus centrifuge (rotor #H2000B) at 4° C. The supernatants were decanted and discarded and the pellets were counted in a 10-channel gamma-counter.
Serum osteocalcin, a vitamin K-dependent, calcium binding protein, is a biochemical marker that reflects bone formation activity (Gundberg, J Clin Ligand Assay 21: 128-138 (1998)). Serum osteocalcin was quantitated using an IRMA kit from Immutopics, Inc. (#50-1500, San Clemente, Calif.). […] The test uses two different antibodies to measure the serum osteocalcin. […]

[3] = 0.03 mg/kg, Day 14, 0.03 mg/kg, mean ± SD of n = 4, read-out: AUC6
[4] = 0.03 mg/kg, Day 14, 0.03 mg/kg, n = 4, 0 hr conc. substituted for 24 hr, read-out: AUC24
[5] = 0.3 mg/kg, Day 14, 0.3 mg/kg, mean ± SD of n = 4, read-out: AUC6
[6] = 0.3 mg/kg, Day 14, 0.3 mg/kg, n = 4, 0 hr conc. substituted for 24 hr, read-out: AUC24
[7] = 3 mg/kg, Day 14, 3 mg/kg, mean ± SD of n = 4, read-out: AUC6
[8] = 3 mg/kg, Day 14, 3 mg/kg, n = 4, 0 hr conc. substituted for 24 hr, read-out: AUC24
[9] = Day 14, 0.03 mg/kg, mean ± SD of n = 4
[10] = Day 14, 0.3 mg/kg, mean ± SD of n = 4
[11] = Day 14, 3 mg/kg, mean ± SD of n = 4

Row | SMILES | systemic exposure compared with Compound 102 ([1]; equal doses) | AUC [1, 3] | AUC [1, 4] | AUC [1, 5] | AUC [1, 6] | AUC [1, 7] | AUC [1, 8] | Cmax [1, 9] | Tmax [1, 9] | Cmax [1, 10] | Tmax [1, 10] | Cmax [1, 11] | Tmax [1, 11] | exposure (AUC24) at which muscle mass is stimulated above sham equivalent levels [2] | restoration of ventral prostate to sham equivalents ([2]; any dose) | preputial gland weight ([2]; 30 mg/kg/day, statistically significant) | ventral prostate or seminal vesicles, % of sham levels ([2]; 100 mg/kg/day PO (highest dose)) | preputial gland weight ([2]; all doses less than 10 mg/kg/day PO) | ventral prostate, % of sham equivalent levels ([2]; exposures of 1 μg·/mL or greater)
1 | C[C@](O)(COc1ccc(C#N)cc1)C(=O)Nc1ccc(C#N)c(C(F)(F)F)c1 [ostarine] | significantly higher exposure | 125 ± 22 ng·h/mL | 552 ± 118 ng·h/mL | 1080 ± 105 ng·h/mL | 4140 ± 448 ng·h/mL | 5040 ± 1300 ng·h/mL | 20600 ± 3650 ng·h/mL | 35 ± 7 ng/mL | 156 ± 144 min | 332 ± 40 ng/mL | 36 ± 12 min | 1480 ± 429 ng/mL | 66 ± 36 min | greater than 10 μg·/mL | did not restore ventral prostate to sham equivalents at any dose | – | – | – | –
2 | N#Cc1ccc(N2CCC[C@@H]2[C@@H](O)C(F)(F)F)cc1C(F)(F)F [Compound 102, R,R-4-(2-(1-Hydroxyl-2,2,2-trifluoroethyl)-pyrrolidinyl)-2-trifluoromethyl-benzonitrile] | – | 56 ± 56 ng·h/mL | 119 ± 90 ng·h/mL | 51 ± 41 ng·h/mL | 229 ± 289 ng·h/mL | 404 ± 199 ng·h/mL | 880 ± 326 ng·h/mL | 39 ± 28 ng/mL | 210 ± 114 min | 40 ± 34 ng/mL | 30 ± 24 min | 207 ± 87 ng/mL | 30 min | ≥ 1 µg·h/mL | – | increased preputial gland weight above the sham level | approximately 50% | remained below vehicle equivalent levels | less than 50%

Reference: patent US11358931B2, “Selective androgen receptor modulators (SARMs) and uses thereof” (priority 2007, dated 2022)
